Where “and” joins values, the source holds several entries; their conditions need not be identical. Equal entries are not always repeated.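 How tested: cells in 96-well plates exposed to compound for 48 hours at five concentrations. At the GI50, growth is halved. The concentration for full growth arrest is given as TGI.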 A value given as a limit tells only on which side of the number the result lay.

The test system of one assay is K-562 leukemia. Briefly: growth of human tumour cells (NCI), 48 h.
For `Cc1cc(C)cc(C(=O)Nc2cccc(-c3cn(-c4ccc(S(N)(=O)=O)cc4)nn3)c2)c1`, the GI50 was 2920 nM and the TGI was above 10000 nM.

The test system of the next assay is SR leukemia. Description: growth of human tumour cells (NCI), 48 h.
As to `Cc1cc(C)cc(C(=O)Nc2cccc(-c3cn(-c4ccc(S(N)(=O)=O)cc4)nn3)c2)c1`, the GI50 was 1830 nM and the TGI was above 10000 nM.

Another assay has as its system MOLT-4 leukemia. Description: growth of human tumour cells (NCI), 48 h.
Regarding `Cc1cc(C)cc(C(=O)Nc2cccc(-c3cn(-c4ccc(S(N)(=O)=O)cc4)nn3)c2)c1`, the GI50 is 5580 nM and the TGI was above 10000 nM.

In the next assay the test system is HCT-15 colon. Briefly: growth of human tumour cells (NCI), 48 h.
Take `Cc1cc(C)cc(C(=O)Nc2cccc(-c3cn(-c4ccc(S(N)(=O)=O)cc4)nn3)c2)c1`: the GI50 was above 10000 nM and the TGI was above 10000 nM.

The next assay has as its system MDA-MB-468 breast. Description: growth of human tumour cells (NCI), 48 h.
With `C#C[C@]1(O)CC[C@H]2[C@@H]3CC=C4c5nc(Nc6ccc(OC)cc6OC)sc5CC[C@]4(C)[C@H]3CC[C@@]21C`, the GI50 was 1840 nM and the TGI stood at 4080 nM.
The like results for `COc1cc2c(cc1OC)C(Sc1ccc(F)cc1)c1c(nc(N)c(C#N)c1N)O2` (configuration not stated) were, in that order, 511 nM and 1840 nM.
With `O=[N+]([O-])c1ccc2nc(N/N=C/c3ccc(O)cc3)sc2c1`, the GI50 was 3910 nM and the TGI is 20800 nM.
Consider `CC/C(=C(\c1ccc(O)cc1)c1ccc(OCCNC)cc1)c1ccccc1`, for which the GI50 was 1590 nM and 1530 nM and 1510 nM; the TGI is 3200 nM and 2980 nM and 3210 nM.
For `C=CC(=O)Nc1cc2c(Nc3ccc(OCc4ccccn4)c(Cl)c3)ncnc2cc1OCCN1CCOCC1`, the GI50 was 14.3 nM and the TGI is 282 nM.
For the compound `CCN(C)S(=O)(=O)Nc1cccc(Nc2ncnc3cc(NC(=O)CCl)ccc23)c1Cl`, the GI50 is 2340 nM and the TGI is 6700 nM.
As for `CCOC(=O)C(=Cc1ccc(Br)cc1)C(=O)OCC`, the GI50 was 1670 nM and the TGI was 3450 nM.
Take `Cc1oc2c(c1C(=O)c1ccccc1)C(=O)c1ccccc1C2=O`: the GI50 was 1740 nM and the TGI is 3260 nM.
For `O=C(NNc1nc2cc(F)ccc2n2c(CN3CC4(COC4)C3)ccc12)c1cnccn1`, in that order: 302 nM and 1240 nM.
For `Nc1cc(C(F)F)c(-c2nc(N3[C@@H]4CC[C@H]3COC4)nc(N3[C@@H]4CC[C@H]3COC4)n2)cn1`, in that order: 249 nM and 3030 nM.
Regarding `NC(=O)c1c(OCc2c(F)cc(Br)cc2F)nsc1NC(=O)NCCCCN1CCCC1`, the GI50 is 1490 nM and the TGI is 3180 nM.
Turning to `O=C1C(Nc2ccccn2)=C(I)C(=O)c2ncccc21`, the GI50 is 1220 nM and the TGI was 2770 nM.
Consider `CCOC(=O)c1c(C)c2c(n1C)CSc1cc(S(=O)(=O)c3ccccc3)c(=O)[nH]c1-2`, for which the GI50 is 14200 nM and the TGI was above 100000 nM.
Turning to `O=S(=O)(Nc1ccc(Cl)c(C(F)(F)F)c1)c1ccc(-c2cnc(C3CC3)o2)cc1`, the GI50 was 144 nM and the TGI was found to be 3100 nM.
The like results for `Cc1cc(N2CCN(C)CC2)nc(NC2CCCC(Nc3ccnc4cc(Cl)ccc34)C2)n1` (configuration not stated) were, in that order, 1670 nM and 4360 nM.
The like results for `O=C(Nc1ccc(-n2cc(-c3ccncc3)c(-c3ccc(Cl)c(O)c3)n2)cc1)c1cc(Cl)cc(Cl)c1` were, in that order, 6070 nM and above 100000 nM.
For `N#CC1=C(N)Oc2c(sc3c(F)cccc23)C1c1ccc([N+](=O)[O-])cc1` (configuration not stated), in that order: 78.7 nM and 902 nM.
As to `O=C(Oc1ccc([N+](=O)[O-])cc1)N1CCC(C(O)(c2ccc3c(c2)OCO3)c2ccc3c(c2)OCO3)CC1`, the GI50 was above 100000 nM and the TGI was above 100000 nM.
For `COC(=O)c1c2c(c(C)[n+]([O-])c1C)C(=O)C(NCc1ccc(F)c(Cl)c1)=CC2=O`, the GI50 was 1120 nM and the TGI was 3040 nM.
On to `Cc1cc(NC(=O)CCc2ccc(N3C(N)=NC(N)=NC3(C)C)cc2)ccc1S(=O)(=O)F`, for which the GI50 is 736 nM and the TGI is above 82900 nM.
For the compound `N#Cc1cccc(Nc2nccc(-c3cnn4ncccc34)n2)c1`, the GI50 was 8.04 nM and the TGI came to 29.3 nM.
With `O=C(N/N=C/c1cc2ccccc2c2ccccc12)c1cc(O)c(O)c(O)c1`, the GI50 was 2460 nM and the TGI was 6880 nM.
As to `CCn1c2ccccc2c2cc(-n3nncc3-c3ccccc3)ccc21`, the GI50 is 437 nM and the TGI is above 100000 nM.
For the compound `CS(=O)(=O)c1ccc(C(F)(F)F)cc1NC(=O)Nc1cnc(Oc2ccc(-c3cc(Cl)cnc3N)cc2)nc1`, the GI50 is 2020 nM and the TGI came to 7000 nM.
As to `CN(C)CCCC1(c2ccc(F)cc2)OCc2cc(-c3ccc4cc[nH]c4c3)ccc21` (configuration not stated), the GI50 was 1750 nM and the TGI is 3440 nM.
In the case of `Cc1ccnc2c1NC(=O)c1cccnc1N2C1CC1`, the GI50 is above 100000 nM and the TGI was above 100000 nM.
With `COCCOC(C)C(/C=N/NC(N)=S)=N/NC(N)=S` (configuration not stated), the GI50 is 21.7 nM and the TGI was above 100000 nM.
Regarding `Cc1ccc(NC2=C(Cl)C(=O)c3nc(C)ccc3C2=O)cc1`, the GI50 was 329 nM and the TGI is 1310 nM.
Regarding `O=[N+]([O-])c1ccc(N(CCO)CCO)c2c1no[n+]2[O-]`, the GI50 is 625 nM and the TGI was found to be 2860 nM.
Take `NC(N)=NC(N)=NCCc1ccccc1`: the GI50 was 6580 nM and 15000 nM; the TGI is 94900 nM and > 100000 nM.
For the compound `COc1cc2cc(C(=O)O)[nH]c2cc1OCc1ccccc1`, the GI50 was above 100000 nM and the TGI is above 100000 nM.
Regarding `O=C1Nc2ccccc2SC1C1SC(=S)N(Cc2ccccc2)C1=O` (configuration not stated), the GI50 is 1050 nM and the TGI was found to be 23400 nM.
`N#Cc1ccc(-n2cnc(NC(=O)[C@H]3CCN(C#N)C3)c2)cc1`: the GI50 was 337 nM and the TGI was 2450 nM.
For the compound `C=CCSc1n[nH]c(-c2cccs2)n1`, the GI50 is above 100000 nM and the TGI is above 100000 nM.
In the case of `C[C@]12CC[C@@H]3c4ccc(O)cc4CC[C@H]3[C@@H]1CC[C@@H]2NS(=O)(=O)c1cccc(Br)c1`, the GI50 is 2430 nM and the TGI was 11500 nM.
On to `CCCn1cnc2c(c1=N)C(c1ccc(OC)cc1)c1sc3c(CC)cccc3c1O2` (configuration not stated), for which the GI50 was 422 nM and the TGI was determined as 4270 nM.
Take `COc1cc(/C=C2\C(=O)N(c3c(Cl)cccc3Cl)c3ccccc32)cc(OC)c1O`: the GI50 is 2270 nM and the TGI stood at 12900 nM.

The record behind these values is PubChem BioAssay (NCI).
